Like-named read-outs stand apart in the source and are kept apart here. Peptide text beside a SMILES is read from it. * marks the point of attachment. Cbz = O=C(OCc1ccccc1)*; CH2F = FC*
Experiments:
Assay type in all cases: cell-based
[1] = tested on: cancerous cell lines (e.g., HT-29, Hub-7, or OVCAR-8); assay: Cell proliferation assay (CELL-TITER GLO cell viability), Table 1; settings: 24 h incubation, cell line not stated
Experimental: (§1) The activity of a combination of a GPX4 inhibitor (e.g., compound A1, A2, or A3) and a tyrosine kinase inhibitor (e.g., neratinib, regorafenib, or sorafenib) was determined in a cell proliferation assay using cancerous cell lines (e.g., HT-29 (colorectal adenocarcinoma), Hub-7 (hepatocellular carcinoma), or OVCAR-8 (ovarian adenocarcinoma)). Cells of each cell line were seeded in a 96-well tissue culture plate. After incubated overnight, a compound or a combination was added at predetermined concentration(s). After the cells were incubated for 24 h, cell viability was determined using a CELL-TITER GLO® assay. The CELL-TITER GLO® reagent (50 μL) was added to each well and the luminescence was measured by a multimode microplate reader after a brief period of shaking. EC50 values were determined from dose response curves.

[2] = tested on: Huh-7 cells; assay: Cell viability assay with ferroptosis/apoptosis inhibitor rescue, Huh-7 cells (FIGS. 1-3); settings: GPX4 inhibitor 100 nM + sorafenib C1 3 μM
Experimental: as §1

[3] = tested on: HT-29 cells; assay: Cell viability assay with ferroptosis/apoptosis inhibitor rescue, HT-29 cells (FIGS. 4-6); settings: GPX4 inhibitor 100 nM + sorafenib C1 3 μM
Experimental: as §1

[4] = GPX4 inhibitor alone, read-out: Inhibition of Cell Proliferation, Monotherapy (EC50)
[5] = GPX4 inhibitor in combination with C2 (10 μM), read-out: Inhibition of Cell Proliferation, Combination +C2 (10 μM) (EC50)
[6] = GPX4 inhibitor in combination with C3 (3 μM), read-out: Inhibition of Cell Proliferation, Combination +C3 (3 μM) (EC50)

Row | Compound | EC50 [1, 4] | EC50 [1, 5] | EC50 [1, 6] | Rescue from cell death induced by GPX4 inhibitor A1, A2, or A3 in combination with sorafenib C1 [2] | Rescue from cell death induced by GPX4 inhibitor A1, A2, or A3 in combination with sorafenib C1 [3]
1 | C#CC(=O)N(c1ccc(OC)c(Cl)c1)C(C(=O)NC(C)(C)C)c1ccc(N)cc1 (stereo not shown) [A3, N-(1-(4-aminophenyl)-2-(tert-butylamino)-2-oxoethyl)-N-(3-chloro-4-methoxyphenyl)propiolamide] | 5700 nM | 207 nM | 1800 nM | – | –
2 | CCOC(=O)c1ccc(NC2CCCCC2)c(N)c1 [Fer-1, ferrostatin-1] | – | – | – | able to rescue | able to rescue
3 | COC(=O)C[C@H](NC(=O)[C@H](C)NC(=O)[C@@H](NC(=O)OCc1ccccc1)C(C)C)C(=O)CF [ZVAD, Z-VAD-FMK] (Cbz-Val-Ala-Asp(OMe)-CH2F) | – | – | – | could not | could not

Second part, led by results:

Row | EC50 [1, 4] | EC50 [1, 5] | EC50 [1, 6] | Compound | Rescue from cell death induced by GPX4 inhibitor A1, A2, or A3 in combination with sorafenib C1 [2] | Rescue from cell death induced by GPX4 inhibitor A1, A2, or A3 in combination with sorafenib C1 [3]
4 | 22500 nM | 97 nM | 1300 nM | C#CC(=O)N1C(c2ccc(C(=O)OC)cc2)c2[nH]c3ccccc3c2C[C@@H]1CO (stereo partly drawn) [A2, methyl 4-((3R)-3-(hydroxymethyl)-2-propioloyl-2,3,4,9-tetrahydro-1H-pyrido[3,4-b]indol-1-yl)benzoate] | – | –
5 | 8000 nM | 57 nM | 970 nM | COC(=O)c1ccc(C2c3[nH]c4ccccc4c3C[C@H](C(=O)OC)N2C(=O)CCl)cc1 (stereo partly drawn) [A1, methyl (3R)-2-(2-chloroacetyl)-2,3,4,9-tetrahydro-1-(4-(methoxycarbonyl)phenyl)-1H-pyrido[3,4-b]indole-3-carboxylate] | – | –

Reference: US11998534B2, “GPX4 inhibitor in combination with anticancer agent for treating proliferative disease” (Eubulus Biotherapeutics Inc., priority 2020, dated 2024)
